Experiments:
P. aeruginosa = conditions: CDTA added at t=12 minutes, final 20 mM, to mixture with 20 mM MgCl2
Description: Either 100 μl of bacterial culture or 100 μl of a 1×10^−9 M ATP stock (control) was added to 100 μl of the reconstitution reagent and luminescence was measured periodically over a 35 minute time period. The microbial cultures were tested at approximately 10^6 cells per well. Additional CDTA was added at t=12 minutes to each of the samples (final concentration=20 mM CDTA).

[1] = system: Pseudomonas aeruginosa (ATCC27853); experiment: Effect of alternate divalent cations on ATP extraction and detection; type: cell-based; conditions: high (20 mM) divalent cation concentration; approximately 1×10^6 cells per well
Description: To evaluate the effects of alternate divalent cations on ATP extraction and detection at low (0.2 mM) and high (20 mM) divalent cation concentrations, Pseudomonas aeruginosa (ATCC27853) was grown in Mueller Hinton II (MH II) Broth at 37° C. overnight. The overnight culture was diluted 50-fold in fresh MH II Broth and then incubated for several hours to reach log phase. Cells were diluted to approximately 1×10^6 cells per well.

S. aureus ATCC 25923 = experiment: Bioluminescent detection of bacterial growth as a function of antibiotic dose; type: cell-based; conditions: 19 hours of incubation at 37° C.; ATP detection assay
Description: Four bacterial strains were used to evaluate the relationship between microbial cell number and luminescence. Bacterial strains Escherichia coli (ATCC25922), Staphylococcus aureus (ATCC25923), Pseudomonas aeruginosa (ATCC27853) and Bacillus cereus (ATCC10987) were grown in Mueller Hinton II (MH II) Broth at 37° C. overnight. The overnight culture was diluted 50-fold in fresh MH II Broth and then incubated for several hours to reach log phase. Samples of the culture were serially diluted using MH II Broth in a 96-well plate. […] Luminescence was recorded on a Veritas™ Microplate Luminometer from Turner Biosystems (Sunnyvale, Calif.). S. aureus ATCC 25923 strain was grown in MH II Broth at 37° C. overnight. The overnight culture was diluted 100-fold in fresh MH II Broth and used as inoculum for the antimicrobial screen. Working stocks (50×) of LOPAC compounds and standard antibiotics were prepared in DMSO. Each well of the 96-well multiwell plate contained 245 μl of the inoculum and 5 μl of the 50× working stock. […] One hundred microliters of the culture was taken from each well, and the luciferase detection assay was performed as described in Example 9. Luminescence was measured using a Veritas™ Microplate Luminometer from Turner Biosystems (Sunnyvale, Calif.). […] Luminescence was recorded on a Veritas™ Microplate Luminometer from Turner Biosystems (Sunnyvale, Calif.).

For `O=C(O)CN(CC(=O)O)C1CCCCC1N(CC(=O)O)CC(=O)O` (stereo not shown) [CDTA, 1,2-Cyclohexanedinitrilotetraacetic acid], the “neutralization of inhibitory divalent cation effects on ATP detection (luminescence)” value (P. aeruginosa) was “capable of neutralizing the inhibitory effects of divalent cations”.

`[Ca+2].[Cl-].[Cl-]` [Ca^2+, CaCl2] was tested, and the “effect on ATP detection (luminescence)” value [1] was “impede ATP detection”.

In the case of `[Cl][Mn][Cl]` [Mn^2+, MnCl2], the “effect on ATP detection (luminescence)” value [1] is reported as “impede ATP detection”.

With `Cc1onc(-c2ccccc2)c1C(=O)N[C@@H]1C(=O)N2[C@@H]1SC(C)(C)[C@@H]2C(=O)O` [oxacillin] the “relative percentage of RLU compared to the no-oxacillin control” value (S. aureus ATCC 25923) was “dose-dependent effect”.

Reference: US7422868B2, “Microbial ATP extraction and detection system” (Promega Corporation, priority 2004, dated 2008)
